Reference: PubChem BioAssay AID330 (DTP/NCI, 2004)
Toxic doses and inconclusive results are not listed. The calls were made as follows: active = survival T/C of 150% or more; inactive = T/C below 125% in these data.

Tested on: P388 leukemia ip, CD2F1 mice, survival T/C
Test: NCI In Vivo Anticancer Drug Screen. Data for tumor model P388 Leukemia (intraperitoneal) in CD2F1 (CDF1) mice
Details: endpoint: median survival time, higher = longer survival
Summary of the method: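 Mice carrying the transplanted tumor received test compound or vehicle. Survival was recorded in each group, and the value is the treated-group measurement divided by that of the vehicle-treated control group.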

[1] = dose: 60.0 mg/kg/injection, schedule: Q01DX005 (ip), vehicle: saline
[2] = dose: 120.0 mg/kg/injection, schedule: Q01DX005 (ip), vehicle: saline
[3] = dose: 240.0 mg/kg/injection, schedule: Q01DX005 (ip), vehicle: saline
[4] = dose: 60.0 mg/kg/injection, schedule: Q01DX005 (ip), vehicle: saline with Tween-80
[5] = dose: 120.0 mg/kg/injection, schedule: Q01DX005 (ip), vehicle: saline with Tween-80
[6] = dose: 50.0 mg/kg/injection, schedule: Q01DX005 (ip), vehicle: saline with Tween-80
[7] = dose: 100.0 mg/kg/injection, schedule: Q01DX005 (ip), vehicle: saline with Tween-80
[8] = dose: 200.0 mg/kg/injection, schedule: Q01DX005 (ip), vehicle: saline with Tween-80
[9] = dose: 100.0 mg/kg/injection, schedule: Q04DX003 (ip), vehicle: saline
[10] = dose: 200.0 mg/kg/injection, schedule: Q04DX003 (ip), vehicle: saline
[11] = dose: 240.0 mg/kg/injection, schedule: Q01DX005 (ip), vehicle: saline with Tween-80

Measured: T/C

CCN(CC)P1(=O)C=C(C)C2C1C1C=C(C)C2P1(=O)N(CC)CC (centres undefined)
inactive: [1] 108 % of control | [2] 101 % of control | [3] 102 % of control

O=C(Nc1ccc(Cl)c(Cl)c1)OCc1cccnc1
inactive: dose: 50.0 mg/kg/injection, schedule: Q01DX009 (ip), vehicle: Klucel (hydroxypropylcellulose) (HPC) 95 % of control | dose: 100.0 mg/kg/injection, schedule: Q01DX009 (ip), vehicle: Klucel (hydroxypropylcellulose) (HPC) 97 % of control | dose: 200.0 mg/kg/injection, schedule: Q01DX009 (ip), vehicle: Klucel (hydroxypropylcellulose) (HPC) 95 % of control

O=C(c1ccc([N+](=O)[O-])cc1)C(Br)C(Br)c1ccncc1 (centres undefined)
inactive: dose: 25.0 mg/kg/injection, schedule: Q01DX009 (ip), vehicle: other 110 % of control | dose: 50.0 mg/kg/injection, schedule: Q01DX009 (ip), vehicle: other 104 % of control | dose: 100.0 mg/kg/injection, schedule: Q01DX009 (ip), vehicle: other 106 % of control | dose: 200.0 mg/kg/injection, schedule: Q01DX009 (ip), vehicle: other 103 % of control

Nc1n[n+](C2CCCCC2)no1
inactive: dose: 3.13 mg/kg/injection, schedule: Q01DX009 (ip), vehicle: water 111 % of control | dose: 6.25 mg/kg/injection, schedule: Q01DX009 (ip), vehicle: water 98 % of control | dose: 12.5 mg/kg/injection, schedule: Q01DX009 (ip), vehicle: water 101 % of control

CC1(C)CN(c2ccccc2)N(CN2CCOCC2)C1=O
inactive: dose: 3.12 mg/kg/injection, schedule: Q01DX009 (ip), vehicle: Klucel (hydroxypropylcellulose) (HPC) 103 % of control | dose: 6.25 mg/kg/injection, schedule: Q01DX009 (ip), vehicle: Klucel (hydroxypropylcellulose) (HPC) 97 % of control | dose: 12.5 mg/kg/injection, schedule: Q01DX009 (ip), vehicle: Klucel (hydroxypropylcellulose) (HPC) 104 % of control

CC(=O)C1=CC[C@H]2[C@@H]3C=CC4=CC(=O)CC[C@]4(C)[C@H]3C[C@@H](O)[C@]12C
inactive: dose: 12.5 mg/kg/injection, schedule: Q01DX005 (ip), vehicle: Klucel (hydroxypropylcellulose) (HPC) 99 % of control | dose: 25.0 mg/kg/injection, schedule: Q01DX005 (ip), vehicle: Klucel (hydroxypropylcellulose) (HPC) 96 % of control | dose: 50.0 mg/kg/injection, schedule: Q01DX005 (ip), vehicle: Klucel (hydroxypropylcellulose) (HPC) 107 % of control | dose: 100.0 mg/kg/injection, schedule: Q01DX005 (ip), vehicle: Klucel (hydroxypropylcellulose) (HPC) 99 % of control | dose: 200.0 mg/kg/injection, schedule: Q01DX005 (ip), vehicle: Klucel (hydroxypropylcellulose) (HPC) 106 % of control

CC(=O)Nc1ccc(-c2cn3ccccc3n2)cc1
inactive: dose: 50.0 mg/kg/injection, schedule: Q01DX009 (ip), vehicle: saline with Tween-80 100 % of control | dose: 100.0 mg/kg/injection, schedule: Q01DX009 (ip), vehicle: saline with Tween-80 92 % of control | dose: 200.0 mg/kg/injection, schedule: Q01DX009 (ip), vehicle: saline with Tween-80 106 % of control

O=c1c(Cc2c(-c3ccccc3)[nH]c3ccccc23)coc2ccccc12
inactive: [4] 90 % of control | [5] 89 % of control

CC(=O)Nc1cccc2[nH]c3ccccc3c(=O)c12
inactive: [6] 95 % of control | [7] 103 % of control | [8] 93 % of control

CCN(CC)CCN(C)C(C)C(=O)Nc1ccccc1Cl (centres undefined)
inactive: [1] 105 % of control | [2] 100 % of control

c1ccc2c3c([nH]c2c1)C1CC2CCCCC2CN1CC3 (centres undefined)
inactive: [4] 94 % of control | [5] 111 % of control

CCN=C(N)N=C(N)N
inactive: dose: 25.0 mg/kg/injection, schedule: Q01DX001 (ip), vehicle: saline 108 % of control | dose: 50.0 mg/kg/injection, schedule: Q01DX001 (ip), vehicle: saline 87 % of control | dose: 50.0 mg/kg/injection, schedule: Q01DX009 (ip), vehicle: saline 100 % of control | dose: 100.0 mg/kg/injection, schedule: Q01DX001 (ip), vehicle: saline 87 % of control | dose: 100.0 mg/kg/injection, schedule: Q01DX009 (ip), vehicle: saline 107 % of control | dose: 200.0 mg/kg/injection, schedule: Q01DX009 (ip), vehicle: saline 98 % of control

COc1ncnc2c1nnn2C1OC(CO)C(O)C1O (centres undefined)
inactive: dose: 25.0 mg/kg/injection, schedule: Q04DX003 (ip), vehicle: saline 96 % of control | dose: 50.0 mg/kg/injection, schedule: Q04DX003 (ip), vehicle: saline 105 % of control | [9] 100 % of control | [10] 109 % of control

CCOC(=O)CN1CCC(C(=O)OC)CC1
inactive: [9] 100 % of control | [10] 100 % of control | dose: 400.0 mg/kg/injection, schedule: Q04DX003 (ip), vehicle: saline 100 % of control

O=c1cc(F)cc[nH]1
inactive: dose: 50.0 mg/kg/injection, schedule: Q01DX005 (ip), vehicle: saline 103 % of control | dose: 100.0 mg/kg/injection, schedule: Q01DX005 (ip), vehicle: saline 104 % of control | dose: 200.0 mg/kg/injection, schedule: Q01DX005 (ip), vehicle: saline 109 % of control

O=C(C(=O)c1ccc(C(=O)C(=O)c2ccccc2)cc1)c1ccccc1
inactive: [4] 104 % of control | [5] 93 % of control | [11] 96 % of control

O=C(/C(=C\c1ccc(F)cc1)S(=O)(=O)c1ccc(Br)cc1)c1ccccc1
inactive: [6] 100 % of control | [7] 97 % of control | [8] 95 % of control

CC(=O)N(C(C)=O)N(C(C)=O)c1cc2ccccc2cn1
inactive: [6] 88 % of control | [7] 91 % of control

CS(=O)CC(=N\N)/C(CS(C)=O)=N/N (centres undefined)
inactive: [1] 100 % of control | [2] 95 % of control | [3] 102 % of control

OC(Cc1cccnc1)(c1ccccc1)c1cccc2ccccc12 (centres undefined)
inactive: dose: 100.0 mg/kg/injection, schedule: Q04DX003 (ip), vehicle: saline with Tween-80 90 % of control | dose: 200.0 mg/kg/injection, schedule: Q04DX003 (ip), vehicle: saline with Tween-80 86 % of control

COc1cc(OC2OC(COC3OC(CO)C(O)C(O)C3O)C(O)C(O)C2O)c2c(c1)C(=O)c1cc(C)cc(O)c1C2=O (centres undefined)
inactive: dose: 25.0 mg/kg/injection, schedule: Q01DX005 (ip), vehicle: water 100 % of control | dose: 50.0 mg/kg/injection, schedule: Q01DX005 (ip), vehicle: water 98 % of control | dose: 100.0 mg/kg/injection, schedule: Q01DX005 (ip), vehicle: water 98 % of control | dose: 200.0 mg/kg/injection, schedule: Q01DX005 (ip), vehicle: water 96 % of control

Cc1ccc(-c2sc3ccccc3c(=O)c2CCl)cc1CO
inactive: [4] 100 % of control | [5] 95 % of control | [11] 90 % of control

CCOC(=O)N1CCN(c2ccc(/C=C\c3cccc(/C=C\c4ccc(N5CCN(C(=O)OCC)CC5)cc4)[n+]3C)cc2)CC1
inactive: dose: 3.12 mg/kg/injection, schedule: Q01DX009 (ip), vehicle: saline 118 % of control | dose: 6.25 mg/kg/injection, schedule: Q01DX009 (ip), vehicle: saline 111 % of control

COc1ccc2nc(NC(=O)Nc3c(Cl)cccc3Cl)sc2c1
inactive: [4] 95 % of control | [5] 101 % of control | [11] 88 % of control
